Data: BindingDB's records for patent US20260042754 (Nodus Oncology, 2026)

Target: Poly(ADP-ribose) glycohydrolase (Homo sapiens, UniProt Q86W56)
Experiment: PARG Enzymatic Assay
Experimental: Inhibition of PARG enzymatic activity by compounds was determined as follows: Recombinant His-tagged human PARG protein expressed in Sf21 insect cells (Adipogen AG, #40T-0022) was aliquoted and stored at −80° C. until use. The artificial enzyme substrate 4-(trifluoromethyl)umbelliferone (TFMU)-ADPr was prepared essentially as described (Drown B S et al, Cell Chemical Biology 2018) and stored at −20° C. as 10 mM stock solutions in DMSO (dimethyl sulfoxide) until use. For reactions, typical final concentration of the enzyme was 1 nM and of the TFMU-ADPr 200 μM. Reactions were carried out in black 384-well low volume round bottom assay plates (Corning, #4514) in a final volume of 10 μL. To this end, PARG was diluted to 1.67 nM in reaction buffer (50 mM K2HPO4, 50 mM KCl, 10 mM β-mercaptoethanol, pH 7.4) and 6 μL were dispensed per assay well using a multichannel pipette. […] Fluorescence intensity signals were then measured after 30 minutes on an EnVision microplate reader (PerkinElmer) using 380/10 nm and 535/25 nm filters for the excitation and emission, respectively (gain: 150). […]

Chain of Poly(ADP-ribose) glycohydrolase (Q86W56 whole entry): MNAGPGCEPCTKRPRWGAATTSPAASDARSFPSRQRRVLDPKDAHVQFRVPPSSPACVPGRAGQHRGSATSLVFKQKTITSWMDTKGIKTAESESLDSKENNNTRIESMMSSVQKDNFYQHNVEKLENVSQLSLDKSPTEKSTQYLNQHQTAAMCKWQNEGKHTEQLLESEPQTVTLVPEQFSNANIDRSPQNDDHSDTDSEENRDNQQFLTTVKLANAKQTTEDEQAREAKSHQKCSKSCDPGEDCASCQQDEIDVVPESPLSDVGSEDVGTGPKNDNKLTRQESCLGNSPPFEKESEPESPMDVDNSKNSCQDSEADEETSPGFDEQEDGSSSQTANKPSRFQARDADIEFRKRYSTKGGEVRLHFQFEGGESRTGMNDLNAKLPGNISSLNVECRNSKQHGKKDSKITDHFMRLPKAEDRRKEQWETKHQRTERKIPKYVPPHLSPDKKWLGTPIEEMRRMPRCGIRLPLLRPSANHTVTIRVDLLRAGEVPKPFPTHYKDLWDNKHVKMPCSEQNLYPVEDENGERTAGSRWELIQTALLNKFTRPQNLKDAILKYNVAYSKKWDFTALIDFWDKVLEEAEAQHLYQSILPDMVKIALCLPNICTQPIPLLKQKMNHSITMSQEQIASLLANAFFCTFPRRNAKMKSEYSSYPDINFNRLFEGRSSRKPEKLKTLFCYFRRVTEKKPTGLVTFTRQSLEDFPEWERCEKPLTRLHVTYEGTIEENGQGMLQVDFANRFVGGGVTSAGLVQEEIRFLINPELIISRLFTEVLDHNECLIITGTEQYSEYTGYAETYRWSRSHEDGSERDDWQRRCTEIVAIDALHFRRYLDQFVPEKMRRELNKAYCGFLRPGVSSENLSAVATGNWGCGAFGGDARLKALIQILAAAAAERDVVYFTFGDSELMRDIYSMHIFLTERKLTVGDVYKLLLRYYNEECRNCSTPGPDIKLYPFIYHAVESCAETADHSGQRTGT

IC50: < 30 nM
SMILES: CO/N=c1\[nH]c2c(N3CCN(C(=O)C4(C(F)(F)F)CC4)[C@H](C)C3)cc(S(=O)(=O)NC3(C)CC3)cc2c(=O)n1Cc1cnn(C)c1 [US20260042754, Example 32]
